Entries after “also recorded” stand apart in the source; their conditions may differ. Read-outs that look alike come from different tables or passages of the source.
Legend:
[1] = tested on: subcutaneous MV4-11 tumors
Protocol: Xenograft was initiated from MV4-11 FLT3-dependent human leukemia cells cultured in Iscove's Modified Dulbecco's medium supplemented with 10% heat-inactivated fetal bovine serum, 100 units/mL penicillin G, 100 μg/mL streptomycin sulfate, 0.25 μg/mL amphotericin B, 2 mM glutamine, 0.075% sodium bicarbonate, and 25 μg/mL gentamicin. Tumor cells were maintained in humidified atmosphere of 95% air and 5% CO2 at 37° C. The cells were harvested during logarithmic phase growth and resuspended at a concentration of 5×10^7 cells/mL in 50% Matrigel matrix (BD Biosciences) and 50% PBS. MV4-11 cells (1×10^7) were implanted subcutaneously into the right flank of each test mouse and the growth of tumors was monitored. Twelve days later, on Day 1 of the study, mice were placed in eight groups each consisting of ten mice with individual tumor sizes of 126 to 221 mm^3 and group mean tumor size of 174 mm^3, tumor volume calculated as a product of width×width×length in mm of an MV4-11 tumor. […] Each dose of drug was given in a volume of 0.2 mL per 20 g of body weight (10 mL/kg) and was adjusted for the body weight of the animal. Each animal was sacrificed when its tumor reached the predetermined endpoint size of 1,000 mm^3 or on the last day of the study (Day 59), whichever came first.
In a follow-on study at the 10 mg/kg oral dose, tumor size was monitored for an additional 60 days after dosing was discontinued.

[2] = Ninety-day toxicity study in rats; format: in vivo, rat
Protocol: (§1) For rats, the compound was administered at a dose of 1, 3, or 10 mg/kg/day.

[3] = Ninety-day toxicity study in dogs; format: in vivo, dog
Protocol: as §1
For dogs, the compound was administered at a dose of 1, 5, or 15 mg/kg/day.

[4] = Phase I clinical trial, safety and tolerability
Text: (§2) The study was open labeled and designed to determine the safety, tolerability, dose limiting toxicity (DLT), pharmacokinetics and pharmacodynamics of escalating doses. […] If two or more patients in the expanded cohort experiences first course DLT, no further patients will enroll at that dose and the next lower dose level will be declared the maximum tolerated dose (MTD). Primary endpoints for the study are safety, tolerability, dose limiting toxicity (DLT), and PK. Secondary endpoint is PD.

[5] = tested on: relapsed or refractory acute myeloid leukemia; settings: for Efficacy: Human, by comparison with efficacious exposure in mice
Text: as §2

RS4-11 cell line = settings: read-out: IC50 (nM), Proliferation, RS 4, 48 hour incubation
[6] = mouse, in vivo, 1 mg/kg
[7] = in vivo
in vivo = settings: mouse, plasma, oral, 1 mg/kg
clinical = settings: human, in vivo; for AUC(0-t): SS AUC0-24 (ng * h/mL)
[8] = Mouse oral pharmacokinetics / exposure
[9] = Phase I clinical trial, human oral pharmacokinetics; settings: in vivo, 12 mg
[10] = follow-on study, 10 mg/kg oral, monitored 60 days after dosing discontinued, ten animals

With `CC(C)(C)c1cc(NC(=O)Nc2ccc(-c3cn4c(n3)sc3cc(OCCN5CCOCC5)ccc34)cc2)no1` [compound of Formula I, N-(5-tert-butyl-isoxazol-3-yl)-N′-{4-[7-(2-morpholin-4-yl-ethoxy)imidazo[2,1-b][1,3]benzothiazol-2-yl]phenyl}urea] the tumor response ([1]; 1 mg/kg (3 mg/m^2, p.o., QD)) was “tumor growth inhibition”, the tumor response ([1]; 3 mg/kg p.o. QD for 28 days) was “tumor regression” and the tumor response ([1]; 10 mg/kg p.o. QD for 28 days) was “tumor regression”. The Efficacy ([1]; Mouse, 1 mg/kg) was “Yes”, the complete responses [1, 10] was “eight” and the partial responses [1, 10] was “two”. For the same compound, the “elevations in liver function tests (LFTS)” value ([2]; high dose (10 mg/kg/day)) was 2- to 3 folds, the neutropenia ([2]; high dose (very mild anemia)) was “Sustained neutropenia” and the clinical signs ([2]; low and middle doses (1, 3 mg/kg/day), 90 days) was “No significant clinical signs were observed”. For the same compound, the AUC at 90 days ([2]; rat, in vivo, 10 mg/kg/day, high dose, read-out: AUC at which LFT elevations were produced) was ≥ 30 µM·h, the half-life ([2]; rat, in vivo, read-out: terminal half-life (converted)) was 5.7 h and the AUC ([3]; dog, in vivo, 15 mg/kg/day, high dose, read-out: AUC at which LFT elevations were produced) was ≥ 30 µM·h. For the same compound, the half-life ([3]; dog, in vivo, read-out: terminal half-life (converted)) was 5.9 h, the weight gain suppression ([3]; high dose) was 10% and the “elevations in liver function tests (LFTS)” value ([3]; high dose (15 mg/kg/day)) was 3 to 6 folds. The neutropenia ([3]; high dose (very mild anemia)) was “Sustained neutropenia”, the clinical signs ([3]; low and middle doses (1, 5 mg/kg/day), 90 days) was “No significant clinical signs were observed” and the deaths ([4]; Cohorts 1 and 2, one unrelated fungal infection, one congestive heart failure possibly drug related) was “Two”. The “Grade 1 (mild) drug-related adverse events: instance of cough” value ([4]; human, in vivo) was “one”, the “Grade 1 (mild) drug-related adverse events: instance of decreased appetite” value ([4]; human, in vivo) was “one” and the “Grade 1 (mild) drug-related adverse events: instance of disgeusia” value ([4]; human, in vivo) was “one”. For the same compound, the “Grade 1 (mild) drug-related adverse events: instances of abdominal distension/constipation” value ([4]; human, in vivo) was “two”, the “Grade 1 (mild) drug-related adverse events: instances of nausea/vomiting” value ([4]; human, in vivo) was “two” and the “dose limiting toxicity (DLT)” value ([4]; human, in vivo) was “reported as a DLT”. For the same compound, the “grade of other possibly drug-related AEs” value ([4]; human, in vivo) was ≤ 2 grade, the hematological toxicity ([4]; human, in vivo) was “no hematological toxicity was observed” and the MTD ([4]; up to 450 mg/day, either schedule) was “has not yet been observed”. The hematological improvement ([5]; Cohort 2, 18 mg, individual patients) was “major hematological improvement; also recorded: minor hematological improvement”, the Efficacy ([5]; 12 mg) was “Possible” and the Efficacy ([5]; 18 mg) was “Possible”. For the same compound, the “patients with hematological improvement” value ([5]; cohort 2 (18 mg)) was “three”, the “patients with complete response (CR)” value ([5]; first 45 pts) was “Four” and the “responders that were WT” value ([5]; human, in vivo) was “five”. For the same compound, the “non-responding patients with ITD mutations with initial rapid clearing of peripheral blasts” value ([5]; intermittent dosing) was “Six of the 9”, the IC50 (RS4-11 cell line) was 1000 nM and the “ΔT” value [6] was 6 h. For the same compound, the “duration of steady state exposure” value ([7]; human) was 24 h, the “plasma exposure versus dose” value ([7]; human) was “dose proportional” and the bioavailability in humans ([7]; human, po, 12 mg) was “good bioavailability”. For the same compound, the human bioavailability ([7]; 18 mg) was “good human bioavailability”, the AUC (in vivo) was ~3.2 µM·h and the AUC(0-t) (in vivo) was 1790 ng·h/mL. For the same compound, the half-life (clinical; 12 mg) was ~67.2 h, the AUC(0-t) (clinical; 12 mg) was 757 ng·h/mL and the half-life (clinical; 18 mg) was 24 to 67.2 h. For the same compound, the AUC(0-t) (clinical; 18 mg) was 1380 ng·h/mL, the “SS Cp” value ([8]; Mouse, 1 mg/kg) was 143 ng/mL and the “efficacious plasma levels over the MV4;11 IC50” value ([8]; mice, efficacious dose 1 mg/kg) was “about 800 fold”. For the same compound, the “duration of steady state exposure” value ([8]; mouse) was 6 h and the Cmax [9] was 11.2 ng/mL.

Reference: patent publication US7968543B2 (priority 2007, dated 2011)
